For assay [1], the target named is T1, purified wild type MGL (wt-MGLL 6H-11-313) (Homo sapiens, UniProt Q99685).
T1 construct: purified wild type MGL (wt-MGLL 6H-11-313)
T1 sequence (Q99685 1-303): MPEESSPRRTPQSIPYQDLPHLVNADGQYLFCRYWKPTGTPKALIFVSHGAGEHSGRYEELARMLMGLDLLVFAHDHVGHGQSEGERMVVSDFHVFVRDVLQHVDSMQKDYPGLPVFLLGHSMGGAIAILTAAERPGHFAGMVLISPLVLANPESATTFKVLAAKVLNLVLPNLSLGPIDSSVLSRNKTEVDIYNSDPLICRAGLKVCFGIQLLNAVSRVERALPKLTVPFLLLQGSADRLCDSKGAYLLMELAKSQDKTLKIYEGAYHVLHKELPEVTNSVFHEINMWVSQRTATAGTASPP
Nature of the assay: MGL enzyme activity assay (4MU-B cleavage), wild type MGL. The class given is biochemical. The conditions noted are these: wild type MGL 5 nM, 4MU-B 10 μM, 37° C.; read-out: MGL wild type inh IC50. The essentials: (§1)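 Enzyme in 20 mM PIPES pH 7.0, 150 mM NaCl, 0.001% Tween 20 with 4MU-B at 10 μM final and MGL at 5 nM final; compounds 17 to 0.0003 μM final, enzyme added last. Fluorescence (ex 335/em 440 nm) followed at 37° C for 5 min; IC50 from fit of fractional activity versus inhibitor concentration.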

Assay [2] deals with T2, purified mutant MGL (mut-MGLL 11-313 L179S L186S) (Homo sapiens, UniProt Q99685, L169S/L176S).
T2 construct: purified mutant MGL (mut-MGLL 11-313 L179S L186S)
T2 sequence (Q99685 1-303 L169S/L176S): T1 sequence (Q99685 1-303) with L169S, L176S
Nature of the assay: MGL enzyme activity assay (4MU-B cleavage), mutant MGL. The class given is biochemical. As to conditions: mutant MGL 5 nM, 4MU-B 10 μM, 37° C.; read-out: MGL mutant inh IC50. The essentials: as §1

Assay [3] concerns CFA-induced paw radiant heat hypersensitivity. As to the kind of experiment: CFA-induced paw radiant heat hypersensitivity. The class given is in vivo. The conditions noted are these: po, 5 h; rat, 30 mg/kg p.o., 20% HPβCD, last time point 300 min, group mean values; read-out: Method 1: peak % reversal. As for the experimental part:
Each rat was placed in a test chamber on a warm glass surface and allowed to acclimate for approximately 10 min. A radiant thermal stimulus (beam of light) was focused through the glass onto the plantar surface of each hind paw in turn. The thermal stimulus was automatically shut off by a photoelectric relay when the paw was moved or when the cut-off time was reached (20 sec for radiant heat at ˜5 amps). An initial (baseline) response latency to the thermal stimulus was recorded for each animal prior to the injection of complete Freund's adjuvant (CFA). Twenty-four hours following intraplantar CFA injection, the response latency of the animal to the thermal stimulus was re-evaluated and compared to the animal's baseline response time. […] Immediately following the post-CFA latency assessment, the indicated test compound or vehicle was administered orally. Post-compound treatment withdrawal latency was assessed at fixed time intervals, typically 30, 60, 120, 180, and 300 min. • The percent reversal (% R) of hypersensitivity was calculated in one of two different ways: 1) using group mean values or 2) using individual animal values. More specifically: • Method 1. For all compounds, the % R of hypersensitivity was calculated using the mean value for groups of animals at each time point according to the following formula: % reversal=[(group treatment response−group CFA response)/(group baseline response−group CFA response)]×100 • Results are given for the maximum % reversal observed for each compound at any time point tested. • Method 2. For some compounds, the % R of hypersensitivity was calculated separately for each animal according to the following formula: % reversal=[(individual treatment response−individual CFA response)/(individual baseline response−individual CFA response)]×100. • Results are given as a mean of the maximum % reversal values calculated for each individual animal.

The subject of assay [4] is MGL (rat brain homogenate). As to the kind of experiment: 2-AG accumulation assay in rat brain homogenate. The class given is biochemical. As to conditions: compound 1 μM, percent of vehicle 2-AG accumulation. The essentials: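 Rat brain homogenate was incubated with compound for 15 min at 37° C., after which CaCl2 was added to a final concentration of 10 mM and incubation continued for 15 min at 37° C. in 5 mL total. Reactions were stopped with 6 mL of 2:1 chloroform/methanol, and 2-AG accumulated in the organic phase was quantified by HPLC/MS.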

In assay [5] the target is T3, mutant MGL (Homo sapiens, UniProt Q99685, L169S/L176S).
T3 construct: purified mutant MGL (mut-MGLL 11-313 L179S L186S)
T3 sequence (Q99685 1-303 L169S/L176S): T1 sequence (Q99685 1-303) with L169S, L176S
As to the kind of experiment: MGL ThermoFluor assay - mutant. The class given is binding. As to conditions: qNMR-corrected compound concentration; read-out: MGL mutant ThermoFluor qKd. The procedure: The ThermoFluor (TF) assay is a 384-well plate-based binding assay that measures thermal stability of proteins^1,2. The experiments were carried out using instruments available from Johnson & Johnson Pharmaceutical Research & Development, LLC. TF dye used in all experiments was 1,8-ANS (Invitrogen: A-47). Final TF assay conditions used for MGL studies were 0.07 mg/ml of mutant MGL, 100 μM ANS, 200 mM NaCl, 0.001% Tween-20 in 50 mM PIPES (pH=7.0).
Screening compound plates contained 100% DMSO compound solutions at a single concentration. For follow-up concentration-response studies, compounds were arranged in a pre-dispensed plate (Greiner Bio-one: 781280), wherein compounds were serially diluted in 100% DMSO across 11 columns within a series. Columns 12 and 24 were used as DMSO reference and contained no compound. For both single and multiple compound concentration-response experiments, the compound aliquots (46 nL) were robotically predispensed directly into 384-well black assay plates (Abgene: TF-0384/k) using the Hummingbird liquid handler. Following compound dispension, protein and dye solutions were added to achieve the final assay volume of 3 μL. The assay solutions were overlayed with 1 μL of silicone oil (Fluka, type DC 200: 85411) to prevent evaporation.
Bar-coded assay plates were robotically loaded onto a thermostatically controlled PCR-type thermal block and then heated from 40 to 90° C. degrees at a ramp-rate of 1° C./min for all experiments. Fluorescence was measured by continuous illumination with UV light (Hamamatsu LC6), supplied via fiber optics and filtered through a band-pass filter (380-400 nm; >6 OD cutoff). Fluorescence emission of the entire 384-well plate was detected by measuring light intensity using a CCD camera (Sensys, Roper Scientific) filtered to detect 500±25 nm, resulting in simultaneous and independent readings of all 384 wells. A single image with 20-sec exposure time was collected at each temperature, and the sum of the pixel intensity in a given area of the assay plate was recorded vs temperature and fit to standard equations to yield the Tm^1. • 1. Pantoliano, M. W., Petrella, E. C., Kwasnoski, J. D., Lobanov, V. S., Myslik, J., Graf, E., Carver, T., Asel, E., Springer, B. A., Lane, P., and Salemme, F. R. (2001) J Biomol Screen 6, 429-40. • 2. Matulis, D., Kranz, J. K., Salemme, F. R., and Todd, M. J. (2005) Biochemistry 44, 5258-66.
The Kd values for certain compounds of Formula (I) were determined from a fit of the equation to the concentration-response plot of the fractional activity as a function of […]. For some experiments, quantitative NMR spectroscopy (qNMR) was used to measure concentration of the initial 100% DMSO compound solutions and, using the same fitting method, qKd values were determined.

Numbering of substitutions follows the chain as printed. Where only a bound is given, the exact number is not on record here.

11 compounds from patent US8748417B2, “Amino-pyrrolidine-azetidine diamides as monoacylglycerol lipase inhibitors” (Janssen Pharmaceutica, NV, priority 2010, dated 2014) can be followed below.

On to `O=C(c1ccc(-c2cccc(C(F)(F)F)c2)cc1)N1CC(N[C@H]2CN(C(=O)c3ccccc3)CC2F)C1` (single isomer, unassigned) [Cpd 63], for which the half-inhibitory concentration (IC50) in assay [1] is 66.6 nM; in assay [2] it was 6.3 nM. Also, the inhibition in vivo at 30 mg/kg in assay [3] was -8.2%. Moreover, in assay [4], the “Rat Brain 2AG % VehCntrl (%) @1 μM” value is 696%.
In the case of `O=C(c1ccc2c(-c3cccc(C(F)(F)F)c3)c[nH]c2c1)N1CC(N[C@H]2CCN(C(=O)c3ccccc3)C2)C1` [Cpd 103, (3S)-1-(Phenylcarbonyl)-N-[1-({3-[3-(trifluoromethyl)phenyl]-1H-indol-6-yl}carbonyl)azetidin-3-yl]pyrrolidin-3-amine], in assay [1], the IC50 worked out at 15 nM. For the same compound, the inhibition in vivo at 30 mg/kg in assay [3] was determined as 28%. Besides, in assay [4], the “Rat Brain 2AG % VehCntrl (%) @1 μM” value was found to be 332%.
Turning to `O=C(c1ccc2c(-c3cccc(C(F)(F)F)c3)c[nH]c2c1)N1CC(N[C@H]2CCN(C(=O)c3nccs3)C2)C1` [Cpd 105, (3S)-1-(1,3-Thiazol-2-ylcarbonyl)-N-[1-({3-[3-(trifluoromethyl)phenyl]-1H-indol-6-yl}carbonyl)azetidin-3-yl]pyrrolidin-3-amine], in assay [1], the IC50 came to 18 nM. For the same compound, the inhibition in vivo at 30 mg/kg in assay [3] turned out to be 37.2%. Moreover, the “Rat Brain 2AG % VehCntrl (%) @1 μM” value in assay [4] stood at 812%.
For the compound `O=C(c1ccc(-c2cccc(C(F)(F)F)c2)cc1)N1CC(N[C@H]2CCN(C(=O)c3cscn3)C2)C1` [Cpd 114, (3S)-1-(1,3-Thiazol-4-ylcarbonyl)-N-(1-{[3′-(trifluoromethyl)biphenyl-4-yl]carbonyl}azetidin-3-yl)pyrrolidin-3-amine], in assay [1], the IC50 stood at 16.7 nM. The inhibition in vivo at 30 mg/kg in assay [3] worked out at 25.1%. Moreover, the “Rat Brain 2AG % VehCntrl (%) @1 μM” value in assay [4] worked out at 311%.
With `O=C(c1ccc2c(ccn2-c2ccc(F)cc2)c1)N1CC(N[C@H]2CCN(C(=O)c3nccs3)C2)C1` [Cpd 159, (3S)-N-(1-{[1-(4-Fluorophenyl)-1H-indol-5-yl]carbonyl}azetidin-3-yl)-1-(1,3-thiazol-2-ylcarbonyl)pyrrolidin-3-amine], the 50% inhibitory concentration (IC50) in assay [1] was 6 nM. In assay [3], the inhibition in vivo at 30 mg/kg is 56.5%. Also, the “Rat Brain 2AG % VehCntrl (%) @1 μM” value in assay [4] was determined as 476%.
In the case of `Cn1cc(-c2cccc(C(F)(F)F)c2)c2ccc(C(=O)N3CC(N[C@H]4CCN(C(=O)c5nccs5)C4)C3)cc21` [Cpd 162, (3S)-N-[1-({1-Methyl-3-[3-(trifluoromethyl)phenyl]-1H-indol-6-yl}carbonyl)azetidin-3-yl]-1-(1,3-thiazol-2-ylcarbonyl)pyrrolidin-3-amine], the half-inhibitory concentration (IC50) in assay [1] was 6.3 nM. Moreover, the inhibition in vivo at 30 mg/kg in assay [3] worked out at 69.7%. Besides, the “Rat Brain 2AG % VehCntrl (%) @1 μM” value in assay [4] was 911%.
`Cn1cc(-c2cccc(F)c2)c2ccc(C(=O)N3CC(N[C@H]4CCN(C(=O)c5cscn5)C4)C3)cc21` [Cpd 206, (3S)-N-(1-{[3-(3-Fluorophenyl)-1-methyl-1H-indol-6-yl]carbonyl}azetidin-3-yl)-1-(1,3-thiazol-4-ylcarbonyl)pyrrolidin-3-amine]: the IC50 in assay [1] turned out to be 81 nM. Moreover, the Kd in assay [5] is 122 nM. Also, the “Rat Brain 2AG % VehCntrl (%) @1 μM” value in assay [4] was found to be 267%.
For `Cn1cc(-c2cccc(F)c2)c2ccc(C(=O)N3CC(N[C@H]4CCN(C(=O)c5ccccc5)C4)C3)cc21` [Cpd 207, (3S)-N-(1-{[3-(3-Fluorophenyl)-1-methyl-1H-indol-6-yl]carbonyl}azetidin-3-yl)-1-(phenylcarbonyl)pyrrolidin-3-amine], in that order: 63.9 nM, 100 nM and 238%.
In the case of `O=C(c1nccs1)N1CC[C@H](NC2CN(C(=O)c3cccc4c3ccn4-c3ccc(F)cc3)C2)C1` [Cpd 214, (3S)-N-(1-{[1-(4-Fluorophenyl)-1H-indol-4-yl]carbonyl}azetidin-3-yl)-1-(1,3-thiazol-2-ylcarbonyl)pyrrolidin-3-amine], the IC50 in assay [1] was found to be 106 nM. In assay [5], the Kd amounted to 530 nM. Also, the “Rat Brain 2AG % VehCntrl (%) @1 μM” value in assay [4] amounted to 524%.
Take `O=C(c1nccs1)N1CC[C@H](NC2CN(C(=O)c3cccc4c3CCN4c3ccc(F)cc3)C2)C1` [Cpd 216, (3S)-N-(1-{[1-(4-Fluorophenyl)-2,3-dihydro-1H-indol-4-yl]carbonyl}azetidin-3-yl)-1-(1,3-thiazol-2-ylcarbonyl)pyrrolidin-3-amine]: the IC50 in assay [1] was 94.5 nM. The Kd in assay [5] worked out at 462 nM. Besides, the “Rat Brain 2AG % VehCntrl (%) @1 μM” value in assay [4] is 260%.
The matching figures for `Cn1cc(Cc2ccc(F)cc2)c2ccc(C(=O)N3CC(N[C@H]4CCN(C(=O)c5nccs5)C4)C3)cc21` [Cpd 221, (3S)-N-(1-{[3-(4-Fluorobenzyl)-1-methyl-1H-indol-6-yl]carbonyl}azetidin-3-yl)-1-(1,3-thiazol-2-ylcarbonyl)pyrrolidin-3-amine]: < 5 nM, 88.5 nM and 878%.
